Here are results for one substance from PMC5640650, “NatD promotes lung cancer progression by preventing histone H4 serine phosphorylation to activate Slug expression” (Nature Communications, 2017).

The data set has as its system Slug promoter. The experiment in a line: ChIP assay on the Slug promoter, H1299 cells. The format is cell-based, human. The following applies: vs Scr. The source says:
Fig. 6 Nt-acetylation of histone H4 antagonizes phosphorylation of histone H4 serine 1 to regulate Slug expression. a Western blot analysis of indicated histone H4 modifications in Scr and NatD-KD H1299 cells. Histone H4 served as a loading control. b ChIP analysis of the enrichment of indicated histone H4 modifications on the Slug promoter in Scr and NatD-KD H1299 cells. IgG served as a negative control. Results are shown as mean ± s.d. from three independent experiments; two-tailed Student’s t-test, *P < 0.05, **P < 0.01 compared with the Scr control. c ChIP analysis of the enrichment of H3K4me3 and H3K27me3 on the Slug promoter in Scr and NatD-KD H1299 cells. IgG served as a negative control. Results are shown as mean ± s.d. from three independent experiments; two-tailed Student’s t-test, **P < 0.01 compared with the Scr control. d Western blot analysis of indicated proteins from H1299 cells overexpressing NatDΔ or wild-type NatD. Histone H4 served as a loading control. e ChIP analysis of the enrichment of Nt-ac-H4 and H4S1ph on Slug promoter in H1299 cells overexpressing NatDΔ or wild-type NatD. IgG served as a negative control. Results are shown as mean ± s.d. from three independent experiments; two-tailed Student’s t-test, *P < 0.05, **P < 0.01 compared with the wild-type control
Fig. 7 Downregulation of Nt-acetylation of histone H4 facilitates nuclear accumulation of CK2α and its binding to histone H4 in lung cancer cells. a Representative confocal scanning images of CK2α localization in Scr and H1299 cells (left panel). The staining intensity of CK2α was quantified by software ImageJ from NIH (right diagram). Scale bars, 5 μm. […] Equal peptide biotinylated on C terminus is shown by dot blot analysis with streptavidin (middle panel). […] IgG served as a negative control. Results are shown as mean ± s.d. from three independent experiments; two-tailed Student’s t-test, **P < 0.01 compared with the indicated control. g Quantitative real-time PCR analysis of mRNA levels of CK2α and Slug normalized to GAPDH in Scr and NatD-KD H1299 cells in the absence or presence of siRNA to CK2α. NC, siRNA mimics negative control. Data are mean ± s.d. of three independent experiments; Student’s t-test, *P < 0.05, **P < 0.01 compared with the indicated control. h Western blot analysis of indicated proteins from Scr and NatD-KD H1299 cells in the absence or presence of siRNA to CK2α.
ChIP assays were performed with H1299 cells in accordance with standard protocols. Normal rabbit IgG served as the control. ChIP samples were analyzed by quantitative real-time PCR using the FastStart Universal SYBR Green Master (Roche). A standard curve was prepared for each set of primers using serial titration of the input DNA. The percentage of ChIP DNA was calculated relative to the input DNA from primer-specific standard curves using the Rotor-Gene 6000 Series Software 1.7. The primer sequences for ChIP are listed in Supplementary Table 4. Antibodies used were: H4S1ph (Abcam; ab14723), H4K5ac (Millipore; CS204381), H4R3me2a (Active Motif; 39705), H4R3me2s (Abcam; ab5823), CK2α (Abcam; ab70774), H3K4me3 (Abcam; ab8580), and H3K27me3 (Abcam; ab6002).

Take “NatD-KD2: Human NatD shRNA KD2: 5′-GGTTGAATGTCTCCATTGA-3′, lentiviral (shRNA lentiviral)”: the “enrichment of CK2α on Slug promoter” value is given as “significantly increased”; the “enrichment of H3K4me3 on Slug promoter” value is on record as “significantly reduced”; the “enrichment of H3K27me3 on Slug promoter” value is “increased”; the “enrichment of H4R3me2a and H4K5ac on Slug promoter” value is on record as “significantly reduced”. The “enrichment of H4R3me2s on Slug promoter” value is listed as “unchanged”, the “enrichment of H4S1ph on Slug promoter” value is given as “significantly increased” and the “enrichment of Nt-ac-H4 on Slug promoter” value is “significantly reduced”.
